Data reported in patent publication US20230301890A1, “COMPOSITIONS COMPRISING UROLITHINS” (Amazentis SA, priority 2022, published 2023).
Entries after “also recorded” stand apart in the source; their conditions may differ.

Key:
[1] = system: skin barrier function; test: Skin barrier function (TEWL) by Tewameter, aging studies; format: in vivo, human; conditions: UA 1% topical, 8 weeks
Procedure: TEWAMETER® TM 300 (Courage & Khazaka, Cologne, Germany): Transepidermal water loss (TEWL) is a non-invasive method to measure the barrier function of the skin and is regarded as a sensitive parameter to quantify skin barrier damage. Briefly, the insensible water evaporation from the skin is measured by placing cylindric open chamber with two hygrosensors at defined distance to the skin. The probe is held in place for each measurement for 30 seconds. This is to assure that a stable value has been established. The first part of the measurements belongs to this equilibration phase. The values of the last 10 seconds (=10 values) are averaged as the actual measurement value.
TEWAMETER® TM 300 (Courage & Khazaka, Cologne, Germany): Transepidermal water loss (TEWL) is a non-invasive method to measure the barrier function of the skin and is regarded as a sensitive parameter to quantify skin barrier damage. Briefly, the insensible water evaporation from the skin is measured by placing cylindric open chamber with two hygrosensors at defined distance to the skin.

[2] = system: facial wrinkles; test: Aging study 1: wrinkle analysis of Colorface images; format: in vivo, human
Excerpt: The effect of the test product on the skin barrier function will be assessed by transepidermal […] (TEWL) at the beginning as well as after 2 weeks and after 8 weeks of product application. Furthermore, effects on the facial skin on skin hydration (by Corneometer), skin elasticity and firmness (by Cutometer) and skin color (by Spectrophotometer) will be investigated. Additionally, skin layer thickness and undulation index of the dermal epidermal junction (DEJ) will be measured by line-field confocal optical coherence tomography (LC-OCT). Images for wrinkle analysis and for documentation purpose will be taken with Colorface. A questionnaire regarding product traits will be filled in after 2 weeks of product application and at the end of the study.
The following efficacy assessment(s) will be performed: • Biomarker analysis of 3 mm punch-biopsies on 30 subjects (15 subjects per group) by Sponsor/3rd party • Transepidermal Water Loss (TEWL) by Tewameter [g/(m2h)j • Skin Hydration—Skin Capacitance by Corneometer [a.u.j] (see FIG. 8) • Skin Color by Spectrophotometer • Skin Firmness—R0 (Uf) by Cutometer [mm] • Skin Elasticity—R7 (Ur/Uf) by Cutometer • Image analysis by line-field confocal optical coherence tomography (LC-OCT) by Damae**: • (a) Skin layer thickness (epidermis and stratum corneum) • (b) Undulation index of the dermal epidermal junction (DEJ) • Image analysis of Colorface Images by Newtone • (a) analysis of wrinkles and fine lines (see FIG. 7) • (b) creation of average face • Questionnaire of product traits • upon decision of the sponsor, depending on the results of the other instrumental measurements analysis will be done on either one group at three timepoints, or on two groups at two timepoints
COLORFACE® PHOTOBOX (Newtone Technologies, Lyon, France): Colorface® is used for standardized, computer-controlled facial photography. It is equipped with a 24 Mpixel Nikon camera and a various range of LED-flashes at fixed positions in the booth. Illumination of the face is done with • ? standard flashes • ? parallel-polarized light • ? cross-polarized light • □ UV flashes to obtain fluorescent images. The acquisition software for Colorface is used as image database, but also defines the settings for the respective study. All settings are fixed so that unwanted changes of image capture parameters can be avoided. The instrument enables facial photography of high quality and same illumination at different assessment times. Images of the following position of the face will be taken: • ? front • ? right • ? left • 1 single image per setting, face position and assessment time • Data will be stored in the Newtone Imaging access cloud • Images will be provided to the sponsor in an anonymized way (e.g., black bar covering eyes) if possible.
Crow's Feet Analysis: • Parameter: Visible length, Visible surface, Visible depth and Visible volume • Illumination: STD60 • View: profile: right and left • Area: Crow's Feet

O=c1oc2cc(O)ccc2c2ccc(O)cc12 [Urolithin A]
skin barrier function [1]: no significant impact | wrinkle depth ([2]; 0.5% Urolithin A skin cream, vs placebo): no impact | wrinkle depth ([2]; 0.5% Urolithin A skin cream, vs placebo, listed as UA): did not showed any significant effect | wrinkle depth ([2]; 0.5% Urolithin A skin cream, vs placebo, listed as urolithin A): Lack of anti-wrinkle effect | wrinkle depth ([2]; 1% Urolithin A skin cream, 8 weeks twice daily, vs placebo treated side): significant impact on reducing wrinkle depth | wrinkle depth ([2]; 1% Urolithin A skin cream, 8 weeks twice daily, vs placebo treated side, listed as UA): significant anti-wrinkle effects; also recorded: significant reduction | wrinkle depth ([2]; 1% Urolithin A skin cream, 8 weeks twice daily, vs placebo treated side, listed as urolithin A): Reduction; also recorded: Anti-wrinkle effect | reduction in wrinkles ([2]; cream containing Urolithin A at 1% alone): 4-6%
